Paper PMC6154534, “New Benzimidazole-1,2,4-Triazole Hybrid Compounds: Synthesis, Anticandidal Activity and Cytotoxicity Evaluation” (Molecules : A Journal of Synthetic Chemistry and Natural …, 2017)
In brackets after ≈: the same amount, converted by molar mass.

Legend:
C. albicans (ATCC 24433) = experiment: Anticandidal broth microdilution (EUCAST EDef 7.1), resazurin fluorometric readout; type: cell-based; details: Candida albicans, ATCC24433; ATCC 24433, RPMI pH 7, 24 h incubation
Procedure: (§1) Synthesized compounds (5a-5ad) were evaluated for anticandidal activity against C. albicans (ATCC 24433), C. krusei (ATCC 6258), C. parapsilosis (ATCC 22019) and C. [NT] 90030). MIC50 values were evaluated via fluorometric measurements, using resazurin solution [56, 57]. […] [NT] 90030). MIC readings were carried out twice for each chemical agent. The yeasts were maintained in RPMI after overnight incubation at 37 °C. The inocula of test microorganisms adjusted to match the turbidity of a MacFarland 0.5 standard tube as determined with a spectrophotometer and the final inoculum size was 0.5-2.5 × 10^5 cfu/mL for antifungal assay. Testing was carried out in RPMI at pH = 7 and the two-fold serial dilutions technique was applied. The last well on the microplates containing only inoculated broth was kept as controls and the last well with no growth of microorganism was recorded to represent the MIC50 expressed in μg/mL. For the antifungal assays, the compounds were dissolved in DMSO. […] The completed plates were incubated for 24 h. At the end of the incubation, resazurin (20 μg/mL) was added into each well to control whether the growth in wells. Then, plates were allowed to incubate for 2 h. MIC50 values were determined using a microplate reader at […].

C. glabrata (ATCC 90030) = experiment: as above; type: cell-based; details: Nakaseomyces glabratus, ATCC90030; ATCC 90030, RPMI pH 7, 24 h incubation
Procedure: as §1

C. krusei (ATCC 6258) = experiment: as above; type: cell-based; details: Pichia kudriavzevii, ATCC6258; ATCC 6258, RPMI pH 7, 24 h incubation
Procedure: as §1

[1] = system: C. parapsilosis (ATCC 22019); experiment: as above; type: cell-based; details: Lodderomyces parapsilosis, ATCC22019; ATCC 22019, RPMI pH 7, 24 h incubation; read-out: MIC50 C. parapsilopsis
Procedure: as §1

| MIC50 (C. albicans (ATCC 24433)) | MIC50 (C. glabrata (ATCC 90030)) | MIC50 (C. krusei (ATCC 6258)) | MIC50 [1] | melting point | Structure (SMILES) |
| --- | --- | --- | --- | --- | --- |
| 0.78 µg/mL (≈ 1.47 µM) | 1.56 µg/mL (≈ 2.94 µM) | 1.56 µg/mL (≈ 2.94 µM) | 1.56 µg/mL (≈ 2.94 µM) |  | CC(=O)N1CCN(c2ccc(OCC3COC(Cn4ccnc4)(c4ccc(Cl)cc4Cl)O3)cc2)CC1 (centres unmarked) [Ketoconazole, reference compound] |
| 12.5 µg/mL (≈ 27.3 µM) | 25 µg/mL (≈ 54.6 µM) | 50 µg/mL (≈ 109 µM) | 50 µg/mL (≈ 109 µM) | 253.6 °C | CCn1c(SCC(=O)c2ccccc2)nnc1-c1ccc(-c2nc3ccc(F)cc3[nH]2)cc1 [Compound 5z, 2-((4-Ethyl-5-(4-(6-fluoro-1H-benzimidazol-2-yl)phenyl)-4H-1,2,4-triazol-3-yl)thio)-1-phenylethan-1-one] |
| 3.12 µg/mL (≈ 6.09 µM) | 1.56 µg/mL (≈ 3.04 µM) | 3.12 µg/mL (≈ 6.09 µM) | 3.12 µg/mL (≈ 6.09 µM) | 228.5 °C | Cn1c(SCC(=O)c2ccc(Cl)cc2Cl)nnc1-c1ccc(-c2nc3ccc(F)cc3[nH]2)cc1 [Compound 5x, 1-(2,4-Dichlorophenyl)-2-((5-(4-(6-fluoro-1H-benzimidazol-2-yl)phenyl)-4-methyl-4H-1,2,4-triazol-3-yl)thio)ethan-1-one] |
| 0.78 µg/mL (≈ 2.55 µM) | 1.56 µg/mL (≈ 5.09 µM) | 1.56 µg/mL (≈ 5.09 µM) | 0.78 µg/mL (≈ 2.55 µM) |  | OC(Cn1cncn1)(Cn1cncn1)c1ccc(F)cc1F [Fluconazole, reference compound] |

More lines, now with the values behind:

| Structure (SMILES) | MIC50 (C. albicans (ATCC 24433)) | MIC50 (C. glabrata (ATCC 90030)) | MIC50 (C. krusei (ATCC 6258)) | MIC50 [1] | melting point |
| --- | --- | --- | --- | --- | --- |
| CCn1c(SCC(=O)c2ccc(F)cc2F)nnc1-c1ccc(-c2nc3ccccc3[nH]2)cc1 [Compound 5j, 2-((5-(4-(1H-Benzimidazol-2-yl)phenyl)-4-ethyl-4H-1,2,4-triazol-3-yl)thio)-1-(2,4-difluorophenyl)ethan-1-one] | 12.5 µg/mL (≈ 26.3 µM) | 25 µg/mL (≈ 52.6 µM) | 12.5 µg/mL (≈ 26.3 µM) | 25 µg/mL (≈ 52.6 µM) | 238.2 °C |
| Cn1c(SCC(=O)c2ccccc2)nnc1-c1ccc(-c2nc3ccc(Cl)cc3[nH]2)cc1 [Compound 5k, 2-((5-(4-(6-Chloro-1H-benzimidazol-2-yl)phenyl)-4-methyl-4H-1,2,4-triazol-3-yl)thio)-1-phenylethan-1-one] | 12.5 µg/mL (≈ 27.2 µM) | 25 µg/mL (≈ 54.4 µM) | 25 µg/mL (≈ 54.4 µM) | 12.5 µg/mL (≈ 27.2 µM) | 260 °C |
| Cn1c(SCC(=O)c2ccc(Cl)cc2)nnc1-c1ccc(-c2nc3ccccc3[nH]2)cc1 [Compound 5b, 2-((5-(4-(1H-Benzimidazol-2-yl)phenyl)-4-methyl-4H-1,2,4-triazol-3-yl)thio)-1-(4-chlorophenyl)ethan-1-one] | 25 µg/mL (≈ 54.4 µM) | 50 µg/mL (≈ 109 µM) | 50 µg/mL (≈ 109 µM) | 50 µg/mL (≈ 109 µM) | 280.6 °C |
| Cn1c(SCC(=O)c2ccc(F)cc2F)nnc1-c1ccc(-c2nc3ccccc3[nH]2)cc1 [Compound 5e, 2-((5-(4-(1H-Benzimidazol-2-yl)phenyl)-4-methyl-4H-1,2,4-triazol-3-yl)thio)-1-(2,4-difluorophenyl)ethan-1-one] | 12.5 µg/mL (≈ 27.1 µM) | 25 µg/mL (≈ 54.2 µM) | 25 µg/mL (≈ 54.2 µM) | 25 µg/mL (≈ 54.2 µM) | 256.2 °C |
| Cn1c(SCC(=O)c2ccc(Cl)cc2Cl)nnc1-c1ccc(-c2nc3ccccc3[nH]2)cc1 [Compound 5d, 2-((5-(4-(1H-Benzimidazol-2-yl)phenyl)-4-methyl-4H-1,2,4-triazol-3-yl)thio)-1-(2,4-dichlorophenyl)ethan-1-one] | 25 µg/mL (≈ 50.6 µM) | 50 µg/mL (≈ 101 µM) | 50 µg/mL (≈ 101 µM) | 25 µg/mL (≈ 50.6 µM) | 234.7 °C |
| CCn1c(SCC(=O)c2ccc(F)cc2)nnc1-c1ccc(-c2nc3ccccc3[nH]2)cc1 [Compound 5h, 2-((5-(4-(1H-Benzimidazol-2-yl)phenyl)-4-ethyl-4H-1,2,4-triazol-3-yl)thio)-1-(4-fluorophenyl)ethan-1-one] | 12.5 µg/mL (≈ 27.3 µM) | 25 µg/mL (≈ 54.6 µM) | 12.5 µg/mL (≈ 27.3 µM) | 25 µg/mL (≈ 54.6 µM) | 231.3 °C |
| CCn1c(SCC(=O)c2ccc(Cl)cc2Cl)nnc1-c1ccc(-c2nc3ccccc3[nH]2)cc1 [Compound 5i, 2-((5-(4-(1H-Benzimidazol-2-yl)phenyl)-4-ethyl-4H-1,2,4-triazol-3-yl)thio)-1-(2,4-dichlorophenyl)ethan-1-one] | 25 µg/mL (≈ 49.2 µM) | 50 µg/mL (≈ 98.3 µM) | 50 µg/mL (≈ 98.3 µM) | 50 µg/mL (≈ 98.3 µM) | 221.7 °C |
